Key:
Details in all cases: treatment: drug alone; 5 days
UO-31 [1] = assay: AUC of dose-response viability curve, drug alone (arbitrary (AUC of normalised viability)); higher = less growth inhibition
Description: (§1)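 Primary HTS: 8 RCC cell lines treated with 8 doses (up to 10 uM) of each library drug alone for 5 days; viability read by CellTiter-Glo and normalised to DMSO. GI50 was fitted with XLfit (4-parameter), AUC is the area under the dose-response curve, and minimum viability is the lowest fraction of DMSO viability across doses.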

A498 [2] = assay: as above
Description: as §1

CAKI-1 [3] = assay: as above
Description: as §1

ACHN [4] = assay: as above
Description: as §1

769-P [5] = assay: as above
Description: as §1

SN12C [6] = assay: as above
Description: as §1

TK-10 [7] = assay: as above
Description: as §1

786-O [8] = assay: as above
Description: as §1

UO-31 [9] = assay: minimum viability across doses, drug alone, relative to DMSO (fraction); higher = less growth inhibition
Description: as §1

A498 [10] = assay: as above
Description: as §1

CAKI-1 [11] = assay: as above
Description: as §1

ACHN [12] = assay: as above
Description: as §1

769-P [13] = assay: as above
Description: as §1

SN12C [14] = assay: as above
Description: as §1

TK-10 [15] = assay: as above
Description: as §1

786-O [16] = assay: as above
Description: as §1

UO-31 [17] = assay: GI50, drug alone; higher = less potent
Description: as §1

A498 [18] = assay: GI50, drug alone; higher = less potent
Description: as §1

CAKI-1 [19] = assay: GI50, drug alone; higher = less potent
Description: as §1

ACHN [20] = assay: GI50, drug alone; higher = less potent
Description: as §1

769-P [21] = assay: GI50, drug alone; higher = less potent
Description: as §1

SN12C [22] = assay: GI50, drug alone; higher = less potent
Description: as §1

TK-10 [23] = assay: GI50, drug alone; higher = less potent
Description: as §1

786-O [24] = assay: GI50, drug alone; higher = less potent
Description: as §1

Row | GI50, drug alone (ACHN [20]) | GI50, drug alone (786-O [24]) | SMILES | AUC of dose-response viability curve (UO-31 [1]) | AUC of dose-response viability curve (A498 [2]) | AUC of dose-response viability curve (CAKI-1 [3]) | AUC of dose-response viability curve (ACHN [4]) | AUC of dose-response viability curve (769-P [5]) | AUC of dose-response viability curve (SN12C [6]) | AUC of dose-response viability curve (TK-10 [7]) | AUC of dose-response viability curve (786-O [8]) | minimum viability across doses (UO-31 [9]) | minimum viability across doses (A498 [10]) | minimum viability across doses (CAKI-1 [11]) | minimum viability across doses (ACHN [12]) | minimum viability across doses (769-P [13]) | minimum viability across doses (SN12C [14]) | minimum viability across doses (TK-10 [15]) | minimum viability across doses (786-O [16]) | GI50, drug alone (UO-31 [17]) | GI50, drug alone (A498 [18]) | GI50, drug alone (CAKI-1 [19]) | GI50, drug alone (769-P [21]) | GI50, drug alone (SN12C [22]) | GI50, drug alone (TK-10 [23])
1 | 1.22 µM | 1.16 µM | COc1cc(Nc2ncc(F)c(Nc3ccc4c(n3)N(COP(=O)(O)O)C(=O)C(C)(C)O4)n2)cc(OC)c1OC [R788 (Fostamatinib)] | 4.78 | 4.24 | 2.49 | 2.73 | 2.94 | 2.79 | 2.64 | 2.54 | 0.00902 | 1.06 | 0.0246 | 0.0584 | 0.145 | 0.287 | 0.308 | 0.158 | 6.02 µM | > 10 µM | 0.913 µM | 3.5 µM | 2.98 µM | 3.3 µM
2 | 8.48 µM | 5.37 µM | FC(F)(F)c1ccc(Nc2nc3cc(Oc4ccnc(-c5ncc(C(F)(F)F)[nH]5)c4)ccc3[nH]2)cc1 [Raf265 derivative] | 3.5 | 4.16 | 3.62 | 3.47 | 3.24 | 3.32 | 3.18 | 2.69 | 0.0014 | 1.04 | 0.298 | 0.142 | 0.473 | 0.651 | 0.534 | 0.141 | 1.05 µM | > 10 µM | 9.39 µM | 9.97 µM | > 10 µM | > 10 µM
3 | 0.171 µM | < 0.003 µM | CO[C@H]1C[C@@H]2CC[C@@H](C)[C@@](O)(O2)C(=O)C(=O)N2CCCC[C@H]2C(=O)O[C@H]([C@H](C)C[C@@H]2CC[C@@H](O)[C@H](OC)C2)CC(=O)[C@H](C)/C=C(\C)[C@@H](O)[C@@H](OC)C(=O)[C@H](C)C[C@H](C)/C=C/C=C/C=C/1C [Rapamycin (Sirolimus)] | 0.524 | 2.44 | 1.91 | 1.77 | 2.08 | 2.11 | 2.04 | 0.986 | 0.0503 | 0.547 | 0.377 | 0.38 | 0.504 | 0.557 | 0.491 | 0.211 | < 0.003 µM | > 10 µM | 0.358 µM | > 10 µM | 1.76 µM | > 10 µM
4 | 7.85 µM | > 10 µM | CNC(=O)c1cc(Oc2ccc(NC(=O)Nc3ccc(Cl)c(C(F)(F)F)c3)c(F)c2)ccn1 [Regorafenib (BAY 73-4506)] | 3.11 | 3.76 | 3.16 | 3.38 | 3.39 | 3.16 | 3.02 | 2.63 | 0.186 | 0.883 | 0.363 | 0.39 | 0.894 | 0.387 | 0.536 | 0.598 | 2.55 µM | > 10 µM | 7.35 µM | > 10 µM | 8.24 µM | > 10 µM
